≈ marks a conversion by molar mass, not a printed value.
Legend:
[1] = Crystalline solubility in methanol (saturated solution, thermogravimetric analysis of supernatant); type: physicochemical; conditions: organic solvent or mixture, thermodynamic from solid, no ammonia
Experimental: A saturated solution of sulfasalazine (Spectrum Chemical) was prepared in methanol with excess crystalline sulfasalazine.
A saturated solution of piroxicam (Spectrum Chemical) was prepared in methanol with excess crystalline piroxicam.

[2] = Concentration enhancement in methanol with ammonia; type: physicochemical; conditions: for concentration in methanol in the presence of ammonia: methanol with about 1.07 molar equivalents of ammonia, completely dissolved; for time to dissolution after addition of ammonia: slurry in methanol, 2.14 M ammonia in methanol added with stirring; for solubility enhancement in methanol in the presence of ammonia: versus crystalline solubility in methanol without ammonia
Experimental: A second mixture of sulfasalazine in methanol was prepared by stirring 656.0 mg of sulfasalazine (1.65 mmol) in 14.00 mL of methanol. To this slurry, 0.825 mL of 2.14 M ammonia (1.76 mmol) in methanol was added with stirring resulting in complete dissolution of sulfasalazine within 1 minute.
A second mixture of piroxicam in methanol was prepared by stirring 661.8 mg of piroxicam (2.00 mmol) in 15.00 mL of methanol.

solubility [1] [µg/mL]	concentration in methanol in the presence of ammonia [2]	time to dissolution after addition of ammonia [2] [min]	solubility enhancement in methanol in the presence of ammonia [2]	SMILES
~2100 (≈ 6.34 mM)	greater than 41 mg/mL	≤ 1	greater than 19 fold	CN1C(C(=O)Nc2ccccn2)=C(O)c2ccccc2S1(=O)=O [piroxicam]
~1000 (≈ 2.51 mM)	greater than 43 mg/mL	≤ 1	about 43 fold	O=C(O)c1cc(/N=N/c2ccc(S(=O)(=O)Nc3ccccn3)cc2)ccc1O [sulfasalazine]

Reference: patent US20220287976A1, “AMMONIA AS A PROCESSING AID FOR SPRAYED SOLID DISPERSIONS” (Capsugel Belgium NV, priority 2019, published 2022)
